Values after ≈ are worked out from the molar mass of the structure shown. Read-outs that look alike come from different tables or passages of the source.
Legend:
Assay in all cases: Liquid broth MIC in Fastidious broth
Type in all cases: cell-based
[1] = tested on: N. gonorrhoeae ATCC 49226; details: Neisseria gonorrhoeae
Description: (§1) Example V: In Vitro Antibacterial Assays for N. gonorrhoeae Strains
(§2) Additional antibacterial testing of the series was performed in 8 reference strains of N. gonorrhoeae (ATCC 49226, FA1090, WHO G, WHO L, WHO K, H041, WHO Z, and WHO Q). ATCC 49226, FA1090, WHO G, and WHO L produce wild type or wild-type like PBP2. WHO K, H041, WHO Z, and WHO Q produce mosaic PBP2. Liquid broth-based assays were used for antibacterial testing of PBP inhibitors in Neisseria gonorrhoeae. Briefly, cryo-preserved bacterial cultures of clinical strains were streaked for isolation on Chocolate Agar (72 g/L (2×) GC Agar Base (BD #228950) and 2% (2×) Hemoglobin was autoclaved at 121° C. for 20 minutes to sterilize. Once cooled to ˜50° C. the 2× GC Agar Base and 2× Hemoglobin solutions are combined and 1% IsoVitaleX Enrichment (BD #211876) was added to the solution). Strains were incubated at 36° C. and 5% CO2 to allow growth of colonies, 24 hours before inoculum preparation. 2-fold serial dilutions of test compounds were conducted in a 96 well plate with a final volume of 75 μL per well at 2-fold the final desired concentration in Fastidious broth (Remel #R07664). For preparation of assay inoculum, a direct suspension was prepared by aseptically swabbing all colonies from agar plates into culture tubes containing 2 mL of fresh sterile saline. After the dilution plates were set up, direct suspensions were then diluted in a cuvette containing sterile saline and the optical density was measured at 600 nm. Inocula were diluted such that 75 μL of this culture in Fastidious broth results in a starting bacterial concentration of 5×10^5 CFU/mL when added to the dilution plates. The plates were incubated for ˜24 hours at 36° C. and 5% CO2. The MIC was read visually as the lowest concentration well with <10% bacterial growth compared to wells of full growth.

[2] = tested on: N. gonorrhoeae FA1090; details: Neisseria gonorrhoeae
Description: as §1, §2

[3] = tested on: N. gonorrhoeae H041; details: Neisseria gonorrhoeae, H041, read-out: Minimum Inhibitory Concentration, N. gonorrhoeae H041
Description: as §1, §2

[4] = tested on: N. gonorrhoeae WHO G; details: Neisseria gonorrhoeae, read-out: Minimum Inhibitory Concentration, N. gonorrhoeae WHO G
Description: as §1, §2

[5] = tested on: N. gonorrhoeae WHO K; details: Neisseria gonorrhoeae, read-out: Minimum Inhibitory Concentration, N. gonorrhoeae WHO K
Description: as §1, §2

[6] = tested on: N. gonorrhoeae WHO L; details: Neisseria gonorrhoeae, read-out: Minimum Inhibitory Concentration, N. gonorrhoeae WHO L
Description: as §1, §2

[7] = ATCC49226, N. gonorrhoeae strain ATCC 49226, Fastidious broth, read-out: Minimum Inhibitory Concentration, N. gonorrhoeae ATCC 49226
[8] = N. gonorrhoeae strain FA1090, Fastidious broth, read-out: Minimum Inhibitory Concentration, N. gonorrhoeae FA1090
[9] = N. gonorrhoeae strain WHO G, Fastidious broth
[10] = N. gonorrhoeae strain WHO L, Fastidious broth

Row | Structure (SMILES) | MIC [1, 7] | MIC [2, 8] | MIC [3] | MIC [4, 9] | MIC [5] | MIC [6, 10] | MIC ([1]; ATCC49226, read-out: Minimum Inhibitory Concentration, N. gonorrhoeae ATCC 49226) | MIC ([2]; FA1090, read-out: Minimum Inhibitory Concentration, N. gonorrhoeae FA1090) | MIC [4] | MIC [6]
1 | O=C(Nc1ccccc1)NC(C(=O)N[C@H]1Cc2ccc(F)c(C(=O)O)c2OB1O)c1ncc(O)cc1F (stereo partly drawn) [Example 49, (3R)-7-fluoro-3-(2-(3-fluoro-5-hydroxypyridin-2-yl)-2-(3-phenylureido)acetamido)-2-hydroxy-3,4-dihydro-2H-benzo[e][1,2]oxaborinine-8-carboxylic acid] | 16 to 32 µg/mL (≈ 31.2 to 62.5 µM) | 4 to 8 µg/mL (≈ 7.81 to 15.6 µM) | > 64 µg/mL | 16 to 32 µg/mL (≈ 31.2 to 62.5 µM) | > 64 µg/mL | 16 to 32 µg/mL (≈ 31.2 to 62.5 µM) | – | – | – | –
2 | CCN1CCN(C(=O)NC(C(=O)N[C@H]2Cc3cccc(C(=O)O)c3OB2O)c2ccc(O)c(NS(C)(=O)=O)c2)C(=O)C1=O (stereo partly drawn) [Example 22, (3R)-3-(2-(4-ethyl-2,3-dioxopiperazine-1-carboxamido)-2-(4-hydroxy-3-(methylsulfonamido)phenyl)acetamido)-2-hydroxy-3,4-dihydro-2H-benzo[e][1,2]oxaborinine-8-carboxylic acid] | > 64 µg/mL | 1 to 2 µg/mL (≈ 1.62 to 3.24 µM) | > 64 µg/mL | 16 to 32 µg/mL (≈ 25.9 to 51.8 µM) | > 64 µg/mL | > 64 µg/mL | – | – | – | –
3 | CCN1CCN(C(=O)NC(C(=O)N[C@H]2Cc3cccc(C(=O)O)c3OB2O)c2ccc(O)c(NS(N)(=O)=O)c2)C(=O)C1=O (stereo partly drawn) [Example 30, (3R)-3-(2-(4-ethyl-2,3-dioxopiperazine-1-carboxamido)-2-(4-hydroxy-3-(sulfamoylamino)phenyl)acetamido)-2-hydroxy-3,4-dihydro-2H-benzo[e][1,2]oxaborinine-8-carboxylic acid] | > 64 µg/mL | 1 to 2 µg/mL (≈ 1.62 to 3.23 µM) | > 64 µg/mL | 16 to 32 µg/mL (≈ 25.9 to 51.7 µM) | > 64 µg/mL | > 64 µg/mL | – | – | – | –
4 | CCN1CCN(C(=O)NC(C(=O)N[C@H]2Cc3cccc(C(=O)O)c3OB2O)c2ncc(C(=O)O)cc2F)C(=O)C1=O (stereo partly drawn) [Example 20, 6-(2-(((R)-8-carboxy-2-hydroxy-3,4-dihydro-2H-benzo[e][1,2]oxaborinin-3-yl)amino)-1-(4-ethyl-2,3-dioxopiperazine-1-carboxamido)-2-oxoethyl)-5-fluoronicotinic acid] | 4 to 8 µg/mL (≈ 7 to 14 µM) | 1 to 2 µg/mL (≈ 1.75 to 3.5 µM) | 16 to 32 µg/mL (≈ 28 to 56 µM) | 4 to 8 µg/mL (≈ 7 to 14 µM) | 16 to 32 µg/mL (≈ 28 to 56 µM) | > 64 µg/mL | – | – | – | –
5 | NS(=O)(=O)NC(C(=O)N[C@H]1Cc2ccc(F)c(C(=O)O)c2OB1O)c1ncc(O)cc1F (stereo partly drawn) [Example 43, (3R)-7-fluoro-3-(2-(3-fluoro-5-hydroxypyridin-2-yl)-2-(sulfamoylamino)acetamido)-2-hydroxy-3,4-dihydro-2H-benzo[e][1,2]oxaborinine-8-carboxylic acid] | > 64 µg/mL | > 64 µg/mL | > 64 µg/mL | > 64 µg/mL | > 64 µg/mL | > 64 µg/mL | – | – | – | –
6 | N[C@@H](C(=O)N[C@H]1Cc2ccc(F)c(C(=O)O)c2OB1O)c1ccc(OS(=O)(=O)F)cc1 [Example 32, (R)-3-((R)-2-amino-2-(4-((fluorosulfonyl)oxy)phenyl)acetamido)-7-fluoro-2-hydroxy-3,4-dihydro-2H-benzo[e][1,2]oxaborinine-8-carboxylic acid] | – | – | > 64 µg/mL | – | > 64 µg/mL | – | > 64 µg/mL | > 64 µg/mL | > 64 µg/mL | > 64 µg/mL
7 | N=C(N)NC(C(=O)N[C@H]1Cc2ccc(F)c(C(=O)O)c2OB1O)c1ncc(O)cc1F (stereo partly drawn) [Example 52, (3R)-7-fluoro-3-(2-(3-fluoro-5-hydroxypyridin-2-yl)-2-guanidinoacetamido)-2-hydroxy-3,4-dihydro-2H-benzo[e][1,2]oxaborinine-8-carboxylic acid] | > 64 µg/mL | > 64 µg/mL | > 64 µg/mL | > 64 µg/mL | > 64 µg/mL | > 64 µg/mL | – | – | – | –
8 | CCN1CCN(C(=O)NC(C(=O)N[C@H]2Cc3cccc(C(=O)O)c3OB2O)c2ccc(O)c(N)c2)C(=O)C1=O (stereo partly drawn) [Example 29, (3R)-3-(2-(3-amino-4-hydroxyphenyl)-2-(4-ethyl-2,3-dioxopiperazine-1-carboxamido)acetamido)-2-hydroxy-3,4-dihydro-2H-benzo[e][1,2]oxaborinine-8-carboxylic acid] | > 64 µg/mL | 4 to 8 µg/mL (≈ 7.42 to 14.8 µM) | > 64 µg/mL | 16 to 32 µg/mL (≈ 29.7 to 59.3 µM) | > 64 µg/mL | > 64 µg/mL | – | – | – | –
9 | NCCCN1CCN(C(=O)N[C@H](C(=O)N[C@H]2Cc3ccc(F)c(C(=O)O)c3OB2O)c2ccc(O)c(O)c2Cl)C(=O)C1=O (single isomer, unassigned) [Example 28] | > 64 µg/mL | > 64 µg/mL | > 64 µg/mL | > 64 µg/mL | > 64 µg/mL | > 64 µg/mL | – | – | – | –
10 | CCN1CCN(C(=O)NC(C(=O)N[C@H]2Cc3cccc(C(=O)O)c3OB2O)c2ccc(O)c(NC(C)=O)c2)C(=O)C1=O (stereo partly drawn) [Example 17, (3R)-3-(2-(3-acetamido-4-hydroxyphenyl)-2-(4-ethyl-2,3-dioxopiperazine-1-carboxamido)acetamido)-2-hydroxy-3,4-dihydro-2H-benzo[e][1,2]oxaborinine-8-carboxylic acid] | > 64 µg/mL | 1 to 2 µg/mL (≈ 1.72 to 3.44 µM) | > 64 µg/mL | > 64 µg/mL | > 64 µg/mL | > 64 µg/mL | – | – | – | –
11 | N=C(N)NCCN1CCN(C(=O)NC(C(=O)N[C@H]2Cc3ccc(F)c(C(=O)O)c3OB2O)c2ncc(O)cc2F)C(=O)C1=O (stereo partly drawn) [Example 51, (3R)-7-fluoro-3-(2-(3-fluoro-5-hydroxypyridin-2-yl)-2-(4-(2-guanidinoethyl)-2,3-dioxopiperazine-1-carboxamido)acetamido)-2-hydroxy-3,4-dihydro-2H-benzo[e][1,2]oxaborinine-8-carboxylic acid] | 4 to 8 µg/mL (≈ 6.47 to 12.9 µM) | 4 to 8 µg/mL (≈ 6.47 to 12.9 µM) | > 64 µg/mL | 4 to 8 µg/mL (≈ 6.47 to 12.9 µM) | > 64 µg/mL | > 64 µg/mL | – | – | – | –
12 | NS(=O)(=O)NC(C(=O)N[C@H]1Cc2cccc(C(=O)O)c2OB1O)c1ccc(C(=O)O)c(F)c1 (stereo partly drawn) [Example 44, (3R)-3-(2-(4-carboxy-3-fluorophenyl)-2-(sulfamoylamino)acetamido)-2-hydroxy-3,4-dihydro-2H-benzo[e][1,2]oxaborinine-8-carboxylic acid] | > 64 µg/mL | > 64 µg/mL | > 64 µg/mL | > 64 µg/mL | > 64 µg/mL | > 64 µg/mL | – | – | – | –
13 | O=C(NC(C(=O)N[C@H]1Cc2ccc(F)c(C(=O)O)c2OB1O)c1ncc(O)cc1F)c1c(F)cc(O)c(O)c1Cl (stereo partly drawn) [Example 10, (3R)-3-(2-(2-chloro-6-fluoro-3,4-dihydroxybenzamido)-2-(3-fluoro-5-hydroxypyridin-2-yl)acetamido)-7-fluoro-2-hydroxy-3,4-dihydro-2H-benzo[e][1,2]oxaborinine-8-carboxylic acid] | > 64 µg/mL | 16 to 32 µg/mL (≈ 27.5 to 55 µM) | > 64 µg/mL | > 64 µg/mL | > 64 µg/mL | > 64 µg/mL | – | – | – | –
14 | NCCN1CCN(C(=O)NC(C(=O)N[C@H]2Cc3ccc(F)c(C(=O)O)c3OB2O)c2nc(N)sc2F)C(=O)C1=O (stereo partly drawn) [Example 24, (3R)-3-(2-(2-amino-5-fluorothiazol-4-yl)-2-(4-(2-aminoethyl)-2,3-dioxopiperazine-1-carboxamido)acetamido)-7-fluoro-2-hydroxy-3,4-dihydro-2H-benzo[e][1,2]oxaborinine-8-carboxylic acid] | > 64 µg/mL | 16 to 32 µg/mL (≈ 27.5 to 55 µM) | > 64 µg/mL | 16 to 32 µg/mL (≈ 27.5 to 55 µM) | > 64 µg/mL | > 64 µg/mL | – | – | – | –
15 | CCN1CCN(C(=O)NC(C(=O)N[C@H]2Cc3cccc(C(=O)O)c3OB2O)c2ccc(O)c(N(S(C)(=O)=O)S(C)(=O)=O)c2)C(=O)C1=O (stereo partly drawn) [Example 21, (3R)-3-(2-(4-ethyl-2,3-dioxopiperazine-1-carboxamido)-2-(4-hydroxy-3-(N-(methylsulfonyl)methylsulfonamido)phenyl)acetamido)-2-hydroxy-3,4-dihydro-2H-benzo[e][1,2]oxaborinine-8-carboxylic acid] | > 64 µg/mL | 4 to 8 µg/mL (≈ 5.75 to 11.5 µM) | > 64 µg/mL | > 64 µg/mL | > 64 µg/mL | > 64 µg/mL | – | – | – | –

Source: US20230114728A1 (Venatorx Pharmaceuticals, Inc., priority 2019, published 2023)
